Data on 5 molecules can be found in US6821751B2, “Hypoxia responsive transcription enhancer element from yeast” (The Brigham and Women's Hospital, Inc., priority 2001, dated 2004).

By IC50 is commonly meant the concentration that inhibits the measured activity by half.

For series [1], the system named is OLE1 promoter-lacZ fusion. Description: β-galactosidase assay of OLE1 promoter-lacZ fusion reporter (p62::934 and pAM4). The class given is cell-based, S. cerevisiae. The procedure: (§1) The construction of several of the OLE1 promoter-lacZ fusion deletion series has been described previously (Choi, et al., J. Biol. Chem. 271:3581-3589 (1996)). Construction of pAM6, pAM7, pAM10 and pAM16 vectors containing the OLE1 low oxygen response element (LORE) sequences −347 to −328 relative to the ATG translational start codon with the A of the codon designated as +1) was performed by inserting the synthetic paired oligonucleotides (10-5′ and 10-3′) into the XhoI restriction site of pTBA30, the CYC1 basal promoter-lacZ fusion vector. pAM16 contains one LORE copy in the −347 to −328 forward or (+) orientation 5′ to the basal CYC1 promoter-lacZ fusion. pAM7 has one LORE copy in the −328 to −347 reverse or (+) orientation. pAM6 contains a tandem repeat of the LORE in the (+) orientation. pAM10 was generated by inserting the synthetic paired oligonucleotides (yd-19 and yd-20) into the XhoI restriction site of pTBA30. The LORE in this plasmid has three mutations. Plasmid pAM4 is the p62::934 derivative with three nucleotide substitutions in the LORE region (-C342T, -T341A and -A339G) prepared utilizing three step PCR with oligonucleotides containing site-directed mutations. Two PCR reactions with appropriate pairs of mutant primers (PCR1 : yd-8 and yd-20 and PCR2: yd-19 and lacZ-3′) and Taq DNA polymerase were carried out as recommended by Roche Molecular Biochemicals (IN) in 100 μl reactions, using 1 ng of p62::934 as a template in a PTC-100 thermal cycler for 30 cycles (1 min at 94° C., 1 min at 55° C., 1 min at 72° C.), followed by 7 min at 72° C. The PCR products were purified from a 1.0% agarose gel using a Qiaex DNA extraction kit (Qiagen, Calif.). Then, PCR products 1 and 2 were annealed and amplified as above with primer yd-8 and lacZ-3′. The resulting PCR products were purified as above and digested with restriction enzymes HindIII and SalI. Finally this PCR product was cloned into HindIII and SalI pretreated p62::934 plasmid to generate pAM4. All the constructs were verified by DNA sequencing. The promoter deletion constructs were transformed into wild-type strain RZ53-6 for subsequent β-galactosidase assays.
Yeast cells containing lacZ fusion plasmids were grown at 30° C. on uracil dropout medium containing dextrose (Treco, et al., In Current Protocols in Molecular Biology, Ausubel, et al., eds., pp. 13.2.1-13.2.12, John Wiley & Sons, New York (1997)). For unsaturated fatty acid repression analysis, yeast were grown in medium supplemented with 1% tergitol as described previously (Choi, et al., J. Biol. Chem. 271:3581-3589 (1996)). Cells were grown in the presence of UFAs for 6 hours prior to the β-galactosidase assays. Plasmid amplifications and bacterial transformations were performed using Escherichia coli strain DH5 (Invitrogene Corp.). […]

The subject of series [2] is OLE1 mRNA. Description: Northern blot analysis of OLE1 mRNA. The class given is cell-based, S. cerevisiae. As to conditions: for levels of OLE1 mRNA after transition metal in normoxia: increasing concentrations. The procedure:
(§2) Yeast cells containing lacZ fusion plasmids were grown at 30° C. on uracil dropout medium containing dextrose (Treco, et al., In Current Protocols in Molecular Biology, Ausubel, et al., eds., pp. 13.2.1-13.2.12, John Wiley & Sons, New York (1997)). For unsaturated fatty acid repression analysis, yeast were grown in medium supplemented with 1% tergitol as described previously (Choi, et al., J. Biol. Chem. 271:3581-3589 (1996)). Cells were grown in the presence of UFAs for 6 hours prior to the β-galactosidase assays. Plasmid amplifications and bacterial transformations were performed using Escherichia coli strain DH5 (Invitrogene Corp.). Yeast transformations were performed by the method of Elble (BioTechniques 13:18-20 (1992)). Preparative cultures were grown aerobically in a shaker at 200 rpm (Innova 4000 incubator shaker, New Brunswick Scientific. NJ) at 30° C. to mid-logarithmic phase. For experiments assessing yeast under hypoxic conditions, mid-logarithmic phase preparative cultures were used to inoculate special air-tight flasks with inlet and outlet ports to allow for equilibration with the appropriate gas mixtures. Cultures were exposed to a continuous flow of hydrated medical grade nitrogen (BOC Gases, MA), unless otherwise specified, for 6 hours after inoculating the medium via the inlet port. Of note, medical grade nitrogen is contaminated with trace amounts of O2 (less than 1%). The percentage of saturated O2 in each flask was confirmed by using an oxygen monitor (G. C. Industries, Inc.) attached to the outlet port of each culture. […] Growth was monitored by measuring the yeast OD600 at the completion of each experiment.
(§3) Total yeast RNA was isolated as described previously (Collart, et al., In Current Protocols in Molecular Biology, Ausubel, et al., pp. 13.12.1-13.12.5, John Wiley & Sons, New York (1997)). Equal amounts (15 μg) of total RNA were analyzed by Northern blots according to standard procedures for separation of RNA using 1% formaldehyde gels (Collart, et al., In Current Protocols in Molecular Biology, Ausubel, et al., eds, pp. 13.12.1-13.12.5, John Wiley & Sons, New York (1997)). […] Northern blots were quantified using a phosphorimager (Molecular Dynamics) and autoradiographs were also prepared on X-OMAT AR film (Kodak, NY).
For the detection of OLE1 mRNA, a radiolabeled DNA probe was made using a 0.5 kb EcoRI fragment from the OLE1 protein coding sequence. […] The purified DNA fragments were labeled to high specific activity with [^32P]dCTP by the random primer extension method using Ready to Go DNA labeling beads (Amersham Pharmaceutical Biotech) reaction kit. […] Specific activity of labeled probes was determined by liquid scintillation counting.

Series [3] has as its system S. cerevisiae. The series is classed as cell-based. As to conditions: any of the concentrations tested. On the procedure:
as §2, with “mixtures.” for “mixtures. Cultures were exposed to a continuous flow of hydrated medical grade nitrogen (BOC Gases, MA), unless otherwise specified, for 6 hours after inoculating the medium via the inlet port. Of note, medical grade nitrogen is contaminated with trace amounts of O2 (less than 1%). The percentage of saturated O2 in each flask was confirmed by using an oxygen monitor (G. C. Industries, Inc.) attached to the outlet port of each culture.”

In series [4] the test system is LORE-basal CYC1 promoter-lacZ. Kind of series: microbe, parasite or virus in culture. The series is classed as cell-based, S. cerevisiae. On the procedure: as §1, with “The promoter deletion constructs were transformed into wild-type strain RZ53-6 for subsequent β-galactosidase assays.” left out
For series [5], the system named is LORE binding factor(s). Kind of series: Electrophoretic mobility shift assay (EMSA) with crude yeast extracts. Set-up: species or system S. cerevisiae. The procedure:
Haploid yeast (S. cerevisiae, strain RZ53-6 ) were cultured in 1-liter flasks containing 200 ml of YPD (1% yeast extract, 2% peptone, 2% dextrose) either under normoxic or hypoxic conditions, harvested at midlog phase (OD600=0.8), and lysed by vortexing with glass beads according to published protocols (Pfeifer, et al., Cell 49:9-18 (1987)). Following addition of ammonium sulfate to 40% and incubation on a rocker table at 4° C. for 30 minutes, the precipitate was collected by centrifugation at 14,000 rpm in a microfuge at 4° C. for 10 minutes. The pellet was resuspended in storage buffer (20 mM HEPES, pH8.0; 5 mM EDTA; 20% (v/v) glycerol; 1 mM PMSF; 7 mM β-mercaptoethanol) and stored frozen at −80° C. The soluble protein concentration was determined using a Bradford dye binding assay (BioRad, CA).
EMSAs were performed essentially as described by Carey (Carey, Methods Enzymol. 208:103-117 (1991)) utilizing synthetic paired oligonucleotides (e.g., 10-5′ and 10-3′) as a probe or a probe containing the LORE sequence made by PCR using p62::934 as the template with ^32P-labeled oligonucleotides 1-5′ and yd-10 (−397 to −234) as the primers. […] The concentration of each probe was determined on an ethidium bromide stained agarose-mini gel (Maniatis, et al., Molecular Cloning: A Laboratory Manual, Cold Spring Harbor Laboratory Press, Cold Spring Harbor, N.Y. (1982)). […]
Background: In EMSA bound probe runs differently from free probe, usually more slowly.

Series [6] has as its system TRX2 mRNA. Description: Northern blot analysis of TRX2 mRNA. The class given is cell-based, S. cerevisiae. The procedure:
(§4) Yeast cells containing lacZ fusion plasmids were grown at 30° C. on uracil dropout medium containing dextrose (Treco, et al., In Current Protocols in Molecular Biology, Ausubel, et al., eds., pp. 13.2.1-13.2.12, John Wiley & Sons, New York (1997)). For unsaturated fatty acid repression analysis, yeast were grown in medium supplemented with 1% tergitol as described previously (Choi, et al., J. Biol. Chem. 271:3581-3589 (1996)). Cells were grown in the presence of UFAs for 6 hours prior to the β-galactosidase assays. Plasmid amplifications and bacterial transformations were performed using Escherichia coli strain DH5 (Invitrogene Corp.). […] Growth was monitored by measuring the yeast OD600 at the completion of each experiment.
as §3, with “NY). […]” for “NY).”

Series [7] relates to ATF1. Description: Northern blot analysis of ATF1 mRNA. The series is classed as cell-based, S. cerevisiae. The procedure:
as §4
as §3, with “NY). […]” for “NY).”

Series [8] relates to SUT1. Description: Northern blot analysis of SUT1 expression. The class given is cell-based, S. cerevisiae. The procedure: as §4
as §3, with “NY). […]” for “NY).”

Series [9] deals with ANB1. Description: Expression of anaerobic yeast gene ANB1. The class given is cell-based, S. cerevisiae.

Turning to `c1cnc2c(c1)ccc1cccnc12` [1,10 Ph, 1,10-phenanthroline], the “gene expression after incubation with chelator” value in [1] (6 hours of incubation, 2-8 μg/ml) is recorded as “substantially increase”. For the same molecule, in [1] (exposure for six hours), the “expression of OLE1 by OLE1 promoter-lacZ reporter” value was “dose dependent increase”. Also, the “expression of OLE1 by Northern blot” value in [2] (exposure for six hours) was “dose dependent increase”. In addition, in [3], the cell growth entry is “unaffected”.
Take `CCCCC/C=C\C/C=C\CCCCCCCC(=O)O` [linoleic acid]: in [4] (Saccharomyces cerevisiae, reporter pAM6 (two copies of LORE in tandem), UFA for 6 hours, read-out: IC50 of inhibition of lacZ reporter plasmid pAM6 expression), the IC50 was approximately 20 µM. In addition, the “repression / dose-response inhibition of lacZ reporter pAM6 expression” value in [4] (normoxia-, hypoxia- and cobalt-induced expression, pAM6) was “strongly repress”. Moreover, in series [2] (Northern blot), the “OLE1 mRNA level after unsaturated fatty acid” value was “dramatically repressed”. Further, the “hypoxia-induced LORE complex formation (B1)” value in series [5] (crude extracts from L.A.-treated yeast) is on record as “significantly suppressed”.
With `[Cl][Co][Cl]` [CoCl2, cobalt chloride], the “induction of reporter under cobalt-treated conditions in ROX1 deletion strain” value in series [1] (reporter p62::934, strain RZ53-6 Δrox1) was 5.1 fold increase. Besides, the “CoCl2 dependent induction by reporter assay” value in series [1] (reporter pAM4 (mutated LORE)) was “not affected”. The “increase of reporter gene expression under cobalt-treated conditions” value in [4] (plasmid pAM6) is on record as approximately 10 fold. The “levels of OLE1 mRNA after transition metal in normoxia” value in series [2] is “increased levels”. Besides, the “cobalt induction of TRX2 mRNA” value in [6] is approximately 2.5 fold. The “induction of ATF1 by cobalt treatment” value in series [7] is reported as “induced”. For the same molecule, the “induction of SUT1 expression by cobalt” value in [8] is “no significant induction”. Besides, the “expression of ANB1 with cobalt” value in [9] was “not upregulated”.
Consider `[Cl][Ni][Cl]` [NiCl2, nickel chloride], for which the “levels of OLE1 mRNA after transition metal in normoxia” value in series [2] is recorded as “increased levels”.
Regarding “#8: paired oligonucleotides -387 to -368 of OLE1 promoter (SEQ ID NO:44/45) (chain 1 AGGTCTCTTCGCATAGTCG; chain 2 CGACTATGCGAAGAGAACCT; chemistry not given here)”, in [5] (crude extracts from hypoxia and cobalt treated yeast), the “hypoxia- or CoCl2-induced complex formation with end-labeled probe” value is on record as “No specific hypoxia- or CoCl2-induced complex formation”.
